Columns and labels:
Format in all cases: cell-based
cells of the subject = test: Immunofluorescence staining of lamin A: nuclear damage after UVB radiation; details: 5 μM amentoflavone prior to UVB 100 mJ/cm^2; cultured 6 days; cells of the subject (FIG. 3)
Experimental: (§1) Cells of subjects […] were distributed in a 4-well chamber slide holding a medium prepared by adding 1% LSGS and 100 IU penicillin G to 106 medium at 100,000 cells/well. The cells were divided into a UVB-untreated negative control group, a UVB-treated group and a UVB/amentoflavone-treated group. The next day, the medium was replaced with 106 medium containing 1%
(§2) FBS. The amentoflavone-treated group was treated with 5 μM amentoflavone prior to UVB radiation. 24 hours later, after washing the well with PBS, UVB was irradiated at 100 mJ/cm^2 to the test groups. Then, after treating again with 106 medium containing 1% FBS, the cells were cultured at 37° C. for 6 days. The treated cells were subjected to western blot and immunofluorescence staining. For western blot, the cells were lysed using RIPA buffer (Sigma) and proteins were quantitated according to the Lowry's method. 10 μg of each protein was run on 4-12% Nupage gel (Invitrogen) and then transferred to NC membrane. The membrane was blocked with 5% BSA and reacted O/N at 4° C. with the lamin A mutant antibodies, progerin (Abcam) and p-H2AX (Millipore), diluted at 1:300 and 1:200, respectively, with 5% BSA. […] Then, after washing 3 times for 10 minutes with PBST, bands were detected using ECL and LAS3000. […]

phosphorylated H2AX = test: Immunofluorescence staining of phosphorylated H2AX after UVB radiation; details: 5 μM amentoflavone prior to UVB 100 mJ/cm^2; cultured 6 days; cells of the subject (FIG. 3)
Experimental: as §1, §2

[1] = tested on: progerin (mutant lamin A); test: Western blot of progerin (mutant lamin A) induced by UVB radiation; details: 5 μM amentoflavone prior to UVB 100 mJ/cm^2; cultured 6 days; cell extract from subject (FIG. 2)
Experimental: as §1
FBS. The amentoflavone-treated group was treated with 5 μM amentoflavone prior to UVB radiation. 24 hours later, after washing the well with PBS, UVB was irradiated at 100 mJ/cm^2 to the test groups. Then, after treating again with 106 medium containing 1% FBS, the cells were cultured at 37° C. for 6 days. The treated cells were subjected to western blot and immunofluorescence staining. For western blot, the cells were lysed using RIPA buffer (Sigma) and proteins were quantitated according to the Lowry's method. 10 μg of each protein was run on 4-12% Nupage gel (Invitrogen) and then transferred to NC membrane. The membrane was blocked with 5% BSA and reacted O/N at 4° C. with the lamin A mutant antibodies, progerin (Abcam) and p-H2AX (Millipore), diluted at 1:300 and 1:200, respectively, with 5% BSA. […] Then, after washing 3 times for 10 minutes with PBST, bands were detected using ECL and LAS3000.

In the case of `O=c1cc(-c2ccc(O)c(-c3c(O)cc(O)c4c(=O)cc(-c5ccc(O)cc5)oc34)c2)oc2cc(O)cc(O)c12` [Amentoflavone], the “structure of the cell nucleus (nuclear damage caused by lamin A defects), immunofluorescence” value (cells of the subject) is reported as “retained”, the “expression of phosphorylated H2AX, immunofluorescence” value (phosphorylated H2AX) is reported as “reduced” and the “UVB-induced increase of progerin (mutant lamin A), western blot” value [1] is reported as “decreased”.

— patent US20120022151A1, “METHOD FOR PREVENTING DAMAGE TO NUCLEAR MEMBRANE OF SKIN CELL BY ADMINISTERING AMENTOFLAVONE” (Amorepacific Corporation, priority 2010, published 2012)
